Laboratory results reported in ChEMBL document CHEMBL4627246, “Pyroglutamide-Based P2X7 Receptor Antagonists Targeting Inflammatory Bowel Disease” (J Med Chem, 2020).

These molecules were tested on A549 (assay: Cytotoxicity against human A549/ATCC cells assessed as effect on cell growth at 10 uM incubated for 48 hrs by sulforhodamine B assay). Details: a549, 48 h.
Assay type: cell-based

Question: For `O=C(NCc1ccc(Cl)cc1Cl)[C@@H]1CCC(=O)N1c1cscn1`, which Activity is on record?
Answer: The Activity was “Non-Toxic”.

Question: Which Activity does the source give for `COc1ccc(NC(=O)[C@@H]2CCC(=O)N2)cc1OC` here?
Answer: The Activity was “Non-Toxic”.

Question: For `O=C1N[C@H](C(=O)NCc2ccc(Cl)cc2Cl)C/C1=C\N1CCOCC1`, which Activity is on record?
Answer: The Activity was “Non-Toxic”.

What follows are molecules tested on SR (assay: Cytotoxicity against human SR cells assessed as effect on cell growth at 10 uM incubated for 48 hrs by sulforhodamine B assay). Details: not given.
Assay type: cell-based

Question: With `O=C(NCc1ccc(Cl)cc1Cl)[C@@H]1CCC(=O)N1c1cscn1` as the molecule, how does the Activity read?
Answer: The Activity was “Non-Toxic”.

Question: With `COc1ccc(NC(=O)[C@@H]2CCC(=O)N2)cc1OC` as the molecule, how does the Activity read?
Answer: The Activity was “Non-Toxic”.

Question: How did the Activity turn out when `O=C1N[C@H](C(=O)NCc2ccc(Cl)cc2Cl)C/C1=C\N1CCOCC1` was run?
Answer: The Activity was “Non-Toxic”.

These molecules were tested on RPMI-8226 (assay: Cytotoxicity against human RPMI8226 cells assessed as effect on cell growth at 10 uM incubated for 48 hrs by sulforhodamine B assay). Details: rpmi-8226, 48 h.
Assay type: cell-based

Question: How did the Activity turn out when `O=C(NCc1ccc(Cl)cc1Cl)[C@@H]1CCC(=O)N1c1cscn1` was run?
Answer: Its Activity is “Non-Toxic”.

Question: For `COc1ccc(NC(=O)[C@@H]2CCC(=O)N2)cc1OC`, which Activity is on record?
Answer: Its Activity is “Non-Toxic”.

Question: Which Activity does the source give for `O=C1N[C@H](C(=O)NCc2ccc(Cl)cc2Cl)C/C1=C\N1CCOCC1` here?
Answer: Its Activity is “Non-Toxic”.

Each molecule was assayed on MOLT-4 (assay: Cytotoxicity against human MOLT4 cells assessed as effect on cell growth at 10 uM incubated for 48 hrs by sulforhodamine B assay). Details: molt-4, 48 h.
Assay type: cell-based

Question: How did the Activity turn out when `O=C(NCc1ccc(Cl)cc1Cl)[C@@H]1CCC(=O)N1c1cscn1` was run?
Answer: The Activity was “Non-Toxic”.

Question: For `COc1ccc(NC(=O)[C@@H]2CCC(=O)N2)cc1OC`, which Activity is on record?
Answer: The Activity was “Non-Toxic”.

Question: `O=C1N[C@H](C(=O)NCc2ccc(Cl)cc2Cl)C/C1=C\N1CCOCC1` was tested. Which Activity did it give?
Answer: The Activity was “Non-Toxic”.

These molecules were tested on EKVX (assay: Cytotoxicity against human EKVX cells assessed as effect on cell growth at 10 uM incubated for 48 hrs by sulforhodamine B assay). Details: not given.
Assay type: cell-based

Question: `O=C(NCc1ccc(Cl)cc1Cl)[C@@H]1CCC(=O)N1c1cscn1` was tested. Which Activity did it give?
Answer: The Activity was “Non-Toxic”.

Question: How did the Activity turn out when `COc1ccc(NC(=O)[C@@H]2CCC(=O)N2)cc1OC` was run?
Answer: The Activity was “Non-Toxic”.

Question: Which Activity does the source give for `O=C1N[C@H](C(=O)NCc2ccc(Cl)cc2Cl)C/C1=C\N1CCOCC1` here?
Answer: Its Activity is “Non-Toxic”.

What follows are molecules tested on HL-60(TB) (assay: Cytotoxicity against human HL-60(TB) cells assessed as effect on cell growth at 10 uM incubated for 48 hrs by sulforhodamine B assay). Details: not given.
Assay type: cell-based

Question: For `O=C(NCc1ccc(Cl)cc1Cl)[C@@H]1CCC(=O)N1c1cscn1`, which Activity is on record?
Answer: The Activity was “Non-Toxic”.

Question: For `COc1ccc(NC(=O)[C@@H]2CCC(=O)N2)cc1OC`, which Activity is on record?
Answer: The Activity was “Non-Toxic”.

Question: How did the Activity turn out when `O=C1N[C@H](C(=O)NCc2ccc(Cl)cc2Cl)C/C1=C\N1CCOCC1` was run?
Answer: The Activity was “Non-Toxic”.

These molecules were tested on NCI-H460 (assay: Cytotoxicity against human NCI-H460 cells assessed as effect on cell growth at 10 uM incubated for 48 hrs by sulforhodamine B assay). Details: nci-h460, 48 h.
Assay type: cell-based

Question: Which Activity does the source give for `O=C(NCc1ccc(Cl)cc1Cl)[C@@H]1CCC(=O)N1c1cscn1` here?
Answer: The Activity was “Non-Toxic”.

Question: With `COc1ccc(NC(=O)[C@@H]2CCC(=O)N2)cc1OC` as the molecule, how does the Activity read?
Answer: Its Activity is “Non-Toxic”.

Question: With `O=C1N[C@H](C(=O)NCc2ccc(Cl)cc2Cl)C/C1=C\N1CCOCC1` as the molecule, how does the Activity read?
Answer: Its Activity is “Non-Toxic”.

Each molecule was assayed on HCT-15 (assay: Cytotoxicity against human HCT15 cells assessed as effect on cell growth at 10 uM incubated for 48 hrs by sulforhodamine B assay). Details: hct-15, 48 h.
Assay type: cell-based

Question: For `O=C(NCc1ccc(Cl)cc1Cl)[C@@H]1CCC(=O)N1c1cscn1`, which Activity is on record?
Answer: The Activity was “Non-Toxic”.

Question: Which Activity does the source give for `COc1ccc(NC(=O)[C@@H]2CCC(=O)N2)cc1OC` here?
Answer: The Activity was “Non-Toxic”.

Question: For `O=C1N[C@H](C(=O)NCc2ccc(Cl)cc2Cl)C/C1=C\N1CCOCC1`, which Activity is on record?
Answer: Its Activity is “Non-Toxic”.

These molecules were tested on KM12 (assay: Cytotoxicity against human KM12 cells assessed as effect on cell growth at 10 uM incubated for 48 hrs by sulforhodamine B assay). Details: km12, 48 h.
Assay type: cell-based

Question: With `O=C(NCc1ccc(Cl)cc1Cl)[C@@H]1CCC(=O)N1c1cscn1` as the molecule, how does the Activity read?
Answer: The Activity was “Non-Toxic”.

Question: How did the Activity turn out when `COc1ccc(NC(=O)[C@@H]2CCC(=O)N2)cc1OC` was run?
Answer: Its Activity is “Non-Toxic”.

Question: `O=C1N[C@H](C(=O)NCc2ccc(Cl)cc2Cl)C/C1=C\N1CCOCC1` was tested. Which Activity did it give?
Answer: The Activity was “Non-Toxic”.

What follows are molecules tested on SW-620 (assay: Cytotoxicity against human SW620 cells assessed as effect on cell growth at 10 uM incubated for 48 hrs by sulforhodamine B assay). Details: sw-620, 48 h.
Assay type: cell-based

Question: For `O=C(NCc1ccc(Cl)cc1Cl)[C@@H]1CCC(=O)N1c1cscn1`, which Activity is on record?
Answer: Its Activity is “Non-Toxic”.

Question: With `COc1ccc(NC(=O)[C@@H]2CCC(=O)N2)cc1OC` as the molecule, how does the Activity read?
Answer: Its Activity is “Non-Toxic”.

Question: Which Activity does the source give for `O=C1N[C@H](C(=O)NCc2ccc(Cl)cc2Cl)C/C1=C\N1CCOCC1` here?
Answer: Its Activity is “Non-Toxic”.

Each molecule was assayed on SF-295 (assay: Cytotoxicity against human SF295 cells assessed as effect on cell growth at 10 uM incubated for 48 hrs by sulforhodamine B assay). Details: sf-295, 48 h.
Assay type: cell-based

Question: How did the Activity turn out when `O=C(NCc1ccc(Cl)cc1Cl)[C@@H]1CCC(=O)N1c1cscn1` was run?
Answer: Its Activity is “Non-Toxic”.

Question: `COc1ccc(NC(=O)[C@@H]2CCC(=O)N2)cc1OC` was tested. Which Activity did it give?
Answer: Its Activity is “Non-Toxic”.

Question: How did the Activity turn out when `O=C1N[C@H](C(=O)NCc2ccc(Cl)cc2Cl)C/C1=C\N1CCOCC1` was run?
Answer: Its Activity is “Non-Toxic”.

What follows are molecules tested on SF-539 (assay: Cytotoxicity against human SF539 cells assessed as effect on cell growth at 10 uM incubated for 48 hrs by sulforhodamine B assay). Details: sf-539, 48 h.
Assay type: cell-based

Question: With `O=C(NCc1ccc(Cl)cc1Cl)[C@@H]1CCC(=O)N1c1cscn1` as the molecule, how does the Activity read?
Answer: The Activity was “Non-Toxic”.

Question: With `COc1ccc(NC(=O)[C@@H]2CCC(=O)N2)cc1OC` as the molecule, how does the Activity read?
Answer: The Activity was “Non-Toxic”.

Question: Which Activity does the source give for `O=C1N[C@H](C(=O)NCc2ccc(Cl)cc2Cl)C/C1=C\N1CCOCC1` here?
Answer: Its Activity is “Non-Toxic”.

These molecules were tested on M14 (assay: Cytotoxicity against human M14 cells assessed as effect on cell growth at 10 uM incubated for 48 hrs by sulforhodamine B assay). Details: m14, 48 h.
Assay type: cell-based

Question: Which Activity does the source give for `O=C(NCc1ccc(Cl)cc1Cl)[C@@H]1CCC(=O)N1c1cscn1` here?
Answer: Its Activity is “Non-Toxic”.

Question: With `COc1ccc(NC(=O)[C@@H]2CCC(=O)N2)cc1OC` as the molecule, how does the Activity read?
Answer: The Activity was “Non-Toxic”.

Question: With `O=C1N[C@H](C(=O)NCc2ccc(Cl)cc2Cl)C/C1=C\N1CCOCC1` as the molecule, how does the Activity read?
Answer: The Activity was “Non-Toxic”.

Each molecule was assayed on OVCAR-5 (assay: Cytotoxicity against human OVCAR5 cells assessed as effect on cell growth at 10 uM incubated for 48 hrs by sulforhodamine B assay). Details: ovcar-5, 48 h.
Assay type: cell-based

Question: How did the Activity turn out when `O=C(NCc1ccc(Cl)cc1Cl)[C@@H]1CCC(=O)N1c1cscn1` was run?
Answer: The Activity was “Non-Toxic”.

Question: For `COc1ccc(NC(=O)[C@@H]2CCC(=O)N2)cc1OC`, which Activity is on record?
Answer: Its Activity is “Non-Toxic”.

Question: How did the Activity turn out when `O=C1N[C@H](C(=O)NCc2ccc(Cl)cc2Cl)C/C1=C\N1CCOCC1` was run?
Answer: The Activity was “Non-Toxic”.

These molecules were tested on SK-OV-3 (assay: Cytotoxicity against human SKOV3 cells assessed as effect on cell growth at 10 uM incubated for 48 hrs by sulforhodamine B assay). Details: sk-ov-3, 48 h.
Assay type: cell-based

Question: With `O=C(NCc1ccc(Cl)cc1Cl)[C@@H]1CCC(=O)N1c1cscn1` as the molecule, how does the Activity read?
Answer: Its Activity is “Non-Toxic”.

Question: For `COc1ccc(NC(=O)[C@@H]2CCC(=O)N2)cc1OC`, which Activity is on record?
Answer: Its Activity is “Non-Toxic”.

Question: How did the Activity turn out when `O=C1N[C@H](C(=O)NCc2ccc(Cl)cc2Cl)C/C1=C\N1CCOCC1` was run?
Answer: The Activity was “Non-Toxic”.

What follows are molecules tested on 786-0 (assay: Cytotoxicity against human 786-0 cells assessed as effect on cell growth at 10 uM incubated for 48 hrs by sulforhodamine B assay). Details: 786-0, 48 h.
Assay type: cell-based

Question: For `O=C(NCc1ccc(Cl)cc1Cl)[C@@H]1CCC(=O)N1c1cscn1`, which Activity is on record?
Answer: The Activity was “Non-Toxic”.

Question: Which Activity does the source give for `COc1ccc(NC(=O)[C@@H]2CCC(=O)N2)cc1OC` here?
Answer: Its Activity is “Non-Toxic”.

Question: Which Activity does the source give for `O=C1N[C@H](C(=O)NCc2ccc(Cl)cc2Cl)C/C1=C\N1CCOCC1` here?
Answer: Its Activity is “Non-Toxic”.

These molecules were tested on A498 (assay: Cytotoxicity against human A498 cells assessed as effect on cell growth at 10 uM incubated for 48 hrs by sulforhodamine B assay). Details: a498, 48 h.
Assay type: cell-based

Question: With `O=C(NCc1ccc(Cl)cc1Cl)[C@@H]1CCC(=O)N1c1cscn1` as the molecule, how does the Activity read?
Answer: The Activity was “Non-Toxic”.

Question: Which Activity does the source give for `COc1ccc(NC(=O)[C@@H]2CCC(=O)N2)cc1OC` here?
Answer: The Activity was “Non-Toxic”.

Question: `O=C1N[C@H](C(=O)NCc2ccc(Cl)cc2Cl)C/C1=C\N1CCOCC1` was tested. Which Activity did it give?
Answer: The Activity was “Non-Toxic”.

What follows are molecules tested on ACHN (assay: Cytotoxicity against human ACHN cells assessed as effect on cell growth at 10 uM incubated for 48 hrs by sulforhodamine B assay). Details: not given.
Assay type: cell-based

Question: Which Activity does the source give for `O=C(NCc1ccc(Cl)cc1Cl)[C@@H]1CCC(=O)N1c1cscn1` here?
Answer: Its Activity is “Non-Toxic”.

Question: For `COc1ccc(NC(=O)[C@@H]2CCC(=O)N2)cc1OC`, which Activity is on record?
Answer: The Activity was “Non-Toxic”.

Question: How did the Activity turn out when `O=C1N[C@H](C(=O)NCc2ccc(Cl)cc2Cl)C/C1=C\N1CCOCC1` was run?
Answer: Its Activity is “Non-Toxic”.

Each molecule was assayed on UO-31 (assay: Cytotoxicity against human UO31 cells assessed as effect on cell growth at 10 uM incubated for 48 hrs by sulforhodamine B assay). Details: uo-31, 48 h.
Assay type: cell-based

Question: Which Activity does the source give for `O=C(NCc1ccc(Cl)cc1Cl)[C@@H]1CCC(=O)N1c1cscn1` here?
Answer: Its Activity is “Non-Toxic”.

Question: With `COc1ccc(NC(=O)[C@@H]2CCC(=O)N2)cc1OC` as the molecule, how does the Activity read?
Answer: The Activity was “Non-Toxic”.

Question: `O=C1N[C@H](C(=O)NCc2ccc(Cl)cc2Cl)C/C1=C\N1CCOCC1` was tested. Which Activity did it give?
Answer: Its Activity is “Non-Toxic”.

These molecules were tested on DU-145 (assay: Cytotoxicity against human DU145 cells assessed as effect on cell growth at 10 uM incubated for 48 hrs by sulforhodamine B assay). Details: du-145, 48 h.
Assay type: cell-based

Question: `O=C(NCc1ccc(Cl)cc1Cl)[C@@H]1CCC(=O)N1c1cscn1` was tested. Which Activity did it give?
Answer: Its Activity is “Non-Toxic”.

Question: With `COc1ccc(NC(=O)[C@@H]2CCC(=O)N2)cc1OC` as the molecule, how does the Activity read?
Answer: The Activity was “Non-Toxic”.

Question: `O=C1N[C@H](C(=O)NCc2ccc(Cl)cc2Cl)C/C1=C\N1CCOCC1` was tested. Which Activity did it give?
Answer: The Activity was “Non-Toxic”.
